Laboratory results reported in ChEMBL document CHEMBL3414500, “New polycyclic dual inhibitors of the wild type and the V27A mutant M2 channel of the influenza A virus with unexpected binding mode” (Eur J Med Chem, 2015).

Molecular target: Matrix protein 2 (Influenza A virus (A/Udorn/307/1972(H3N2)), UniProt P0DOF8, V27A)

SMILES	IC50 [µM]
C1=C[C@H]2[C@H]3[C@H]4[C@@H]1[C@@H]1[C@H]2[C@@H]2[C@H]3[C@@H]3CNC[C@@H]3[C@H]4[C@H]12	185
C1C[C@H]2[C@H]3[C@H]4[C@@H]1[C@@H]1[C@H]2[C@@H]2[C@H]3[C@@H]3CNC[C@@H]3[C@H]4[C@H]12	17.2
N=C(N)N1C[C@@H]2[C@H](C1)[C@@H]1[C@@H]3[C@H]4CC[C@H]5[C@@H]3[C@H]2[C@H]2[C@@H]5[C@@H]4[C@@H]12	32.2
